One block for each molecule: values may come before it. The source made the active and inactive calls.
Experiments:
[1] = test system: HeLa; experiment: HeLa cell cytotoxicity, dose response, cytotoxicity control for MITF activator project, CellTiter-Glo luminescence, cherry-pick samples (AID 540259); assay type: functional, cell-based; conditions: Homo sapiens
[2] = target: T1, Cytochrome P450 3A4 (Homo sapiens, UniProt P08684);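 also: CYP3A4 tested as one member of a cytochrome P450 panel screen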
[3] = cytotoxicity in HMLE control line with eGFP shRNA, dose response, counter-screen for HMLE_sh_ECad selective toxicity project, cell-based, HMLE_sh_eGFP, luminescence (AID 463074); assay type: functional, Homo sapiens;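 also: HMLE human mammary epithelial cells expressing control shRNA against eGFP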
[4] = Luminescence Cell-Based Dose Retest to Confirm Inhibitors of Cancer Stem Cells. [Related pubchem assays (depositor defined):AID2717, AID2721]; assay type: functional; conditions: Homo sapiens
[5] = target: Cytochrome P450 2D6 (Homo sapiens, UniProt P10635);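 also: CYP2D6 member of a cytochrome P450 panel assay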
[6] = inhibitors of intracellular T. cruzi replication, confirmation, NIH3T3 host cells, beta-gal luminescence (AID 2044); assay type: functional, cell-based;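 also: intracellular parasites grown in NIH/3T3 mouse fibroblasts as host cells; luminescent beta-galactosidase reporter signal from transgenic T. cruzi replicating inside host cells; inhibitors lower the luminescence signal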
[7] = test system: INS1; experiment: beta cell apoptosis inhibitors, cytokine rescue, dose response, luminescence, retest (AID 449756); assay type: functional, cell-based; conditions: Rattus norvegicus;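 also: cell death triggered by IL-1 beta plus TNF-alpha plus IFN-gamma mixture; protective hits raise ATP signal compared with cytokine alone wells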
[8] = cytotoxicity toward NIH3T3 fibroblasts, dose response, counter-screen, cell-based, ATP luminescence, mouse fibroblasts (AID 2010); assay type: functional;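 also: cells exposed to compound for about 90 hours before reading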
[9] = target: T2, Mannose-6-phosphate isomerase (Homo sapiens, UniProt P34949); experiment: inhibitors of human PMI, primary screen, biochemical, fluorescence intensity, coupled assay (AID 1209)
T2 sequence (P34949 whole entry): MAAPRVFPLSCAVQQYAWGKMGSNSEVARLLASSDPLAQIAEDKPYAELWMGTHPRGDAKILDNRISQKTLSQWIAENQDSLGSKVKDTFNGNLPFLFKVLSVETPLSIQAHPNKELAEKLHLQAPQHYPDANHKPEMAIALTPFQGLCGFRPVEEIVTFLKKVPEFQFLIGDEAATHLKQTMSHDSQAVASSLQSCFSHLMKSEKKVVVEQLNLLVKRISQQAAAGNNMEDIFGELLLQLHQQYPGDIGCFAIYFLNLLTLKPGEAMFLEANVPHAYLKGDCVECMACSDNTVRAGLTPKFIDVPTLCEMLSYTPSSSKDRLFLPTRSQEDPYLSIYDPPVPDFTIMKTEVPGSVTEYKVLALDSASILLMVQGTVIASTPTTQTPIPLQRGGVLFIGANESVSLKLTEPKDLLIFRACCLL

[10] = target: Protein Wnt-3a (Mus musculus, UniProt P27467); experiment: Wnt3a-driven reporter signaling inhibition, dose response, selectivity assay for Gli-SUFU antagonist project, Wnt-LIGHT cells, luminescence (AID 651570); assay type: functional; conditions: read-out: IC50_Mean;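 also: Wnt-LIGHT reporter cells stimulated with conditioned medium from Wnt3a-producing cells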
[11] = target: T3, Rac GTPase-activating protein 1 (Homo sapiens, UniProt Q9H0H5); experiment: MgcRacGAP GTPase-activating activity inhibitors, confirmation, biochemical, ADP Hunter fluorescence, primary and confirmatory (AID 624330); assay type: functional
T3 sequence (Q9H0H5 whole entry): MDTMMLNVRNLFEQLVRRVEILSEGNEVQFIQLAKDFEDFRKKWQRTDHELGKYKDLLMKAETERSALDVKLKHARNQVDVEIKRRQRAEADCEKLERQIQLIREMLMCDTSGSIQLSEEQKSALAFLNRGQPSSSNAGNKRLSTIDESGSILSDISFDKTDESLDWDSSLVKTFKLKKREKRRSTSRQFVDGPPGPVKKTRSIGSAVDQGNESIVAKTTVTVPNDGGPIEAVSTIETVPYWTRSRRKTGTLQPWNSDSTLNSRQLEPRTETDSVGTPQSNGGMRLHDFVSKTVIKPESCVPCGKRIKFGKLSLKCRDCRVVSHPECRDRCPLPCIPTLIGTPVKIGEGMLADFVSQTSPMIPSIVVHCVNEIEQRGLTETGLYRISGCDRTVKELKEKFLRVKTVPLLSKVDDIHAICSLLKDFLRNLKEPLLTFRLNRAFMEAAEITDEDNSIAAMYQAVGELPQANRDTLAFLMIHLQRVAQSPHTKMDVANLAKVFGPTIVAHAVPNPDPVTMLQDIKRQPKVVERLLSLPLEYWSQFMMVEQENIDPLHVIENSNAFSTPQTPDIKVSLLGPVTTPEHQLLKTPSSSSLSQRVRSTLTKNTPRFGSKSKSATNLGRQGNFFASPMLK

[12] = test system: Escherichia coli; experiment: microbe, parasite or virus in culture
[13] = target: T1, Cytochrome P450 3A4; remark: listed apart in the source
[14] = target: Cytochrome P450 2C9 (Homo sapiens, UniProt P11712)
[15] = target: Peroxisome proliferator-activated receptor gamma/Nuclear receptor coactivator 2 (Homo sapiens, UniProt P37231); experiment: (§1) TR-FRET dose response biochemical High Throughput Screening assay for agonists of the steroid receptor coactivator 2 (SRC-2) recruitment by the peroxisome proliferator-activated receptor gamma (PPAR gamma): non-selective agonists. [Related pubchem assays: 1297, 1032 ]; assay type: functional
[16] = target: T4, Ubiquitin-conjugating enzyme E2 N (Homo sapiens, UniProt P61088); assay type: functional
T4 sequence (P61088 whole entry): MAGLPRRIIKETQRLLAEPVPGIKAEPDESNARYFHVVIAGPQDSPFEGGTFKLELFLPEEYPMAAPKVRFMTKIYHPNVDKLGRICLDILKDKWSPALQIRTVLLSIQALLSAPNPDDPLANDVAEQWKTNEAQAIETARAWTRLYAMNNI

[17] = target: T4, Ubiquitin-conjugating enzyme E2 N; assay type: functional; remark: listed apart in the source
[18] = target: T5, Bcl-2-related protein A1 (Mus musculus, UniProt Q07440); assay type: functional;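 also: confirmatory dose–response counterscreen on Bfl-1, used to check hits from a UBC13 polyubiquitin inhibitor campaign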
T5 sequence (Q07440 whole entry): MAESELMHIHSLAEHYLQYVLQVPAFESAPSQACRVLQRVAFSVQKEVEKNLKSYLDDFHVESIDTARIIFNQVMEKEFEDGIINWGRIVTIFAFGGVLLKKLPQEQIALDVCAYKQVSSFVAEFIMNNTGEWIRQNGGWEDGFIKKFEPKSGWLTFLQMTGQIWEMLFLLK

[19] = target: Peroxisome proliferator-activated receptor gamma/Nuclear receptor coactivator 1 (Homo sapiens, UniProt P37231); experiment: as §1, with “1 (SRC-1)” for “2 (SRC-2)”, “assays (depositor defined):AID1300, AID1808, AID504735, AID631]” for “assays: 1297, 1032 ]”; assay type: protein assay
[20] = target: Peroxisome proliferator-activated receptor gamma/Nuclear receptor coactivator 3 (Homo sapiens, UniProt P37231); experiment: as §1, with “3 (SRC-3)” for “2 (SRC-2)”, “1301 (Confirmation screen.), 1048 (Primary screen.)]” for “1297, 1032 ]”; assay type: functional

T1 sequence (P08684 whole entry): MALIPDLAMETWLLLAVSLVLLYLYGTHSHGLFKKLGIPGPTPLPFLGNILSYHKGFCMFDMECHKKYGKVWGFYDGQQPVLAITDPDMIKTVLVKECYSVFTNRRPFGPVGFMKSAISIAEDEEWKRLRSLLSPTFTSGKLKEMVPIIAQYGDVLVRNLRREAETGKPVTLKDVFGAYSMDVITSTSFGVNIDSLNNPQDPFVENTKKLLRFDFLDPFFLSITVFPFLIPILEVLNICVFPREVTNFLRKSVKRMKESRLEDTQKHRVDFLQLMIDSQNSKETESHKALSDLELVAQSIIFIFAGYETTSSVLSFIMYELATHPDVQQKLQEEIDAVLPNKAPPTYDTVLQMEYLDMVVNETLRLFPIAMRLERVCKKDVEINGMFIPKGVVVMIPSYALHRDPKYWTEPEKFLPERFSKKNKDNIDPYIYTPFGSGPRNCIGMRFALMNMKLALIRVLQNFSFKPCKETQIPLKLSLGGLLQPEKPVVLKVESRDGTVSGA
Chain of Protein Wnt-3a (P27467 whole entry): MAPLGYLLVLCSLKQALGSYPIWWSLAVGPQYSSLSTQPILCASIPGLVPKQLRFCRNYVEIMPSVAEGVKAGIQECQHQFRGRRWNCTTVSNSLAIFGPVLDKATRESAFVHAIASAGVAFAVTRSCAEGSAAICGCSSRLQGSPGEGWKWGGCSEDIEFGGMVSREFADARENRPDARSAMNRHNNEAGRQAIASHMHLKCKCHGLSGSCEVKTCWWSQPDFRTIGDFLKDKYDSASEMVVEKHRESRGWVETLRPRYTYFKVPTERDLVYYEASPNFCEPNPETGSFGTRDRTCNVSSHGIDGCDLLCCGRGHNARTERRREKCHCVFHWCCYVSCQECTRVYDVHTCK
Chain of Peroxisome proliferator-activated receptor gamma/Nuclear receptor coactivator 2 (P37231 whole entry): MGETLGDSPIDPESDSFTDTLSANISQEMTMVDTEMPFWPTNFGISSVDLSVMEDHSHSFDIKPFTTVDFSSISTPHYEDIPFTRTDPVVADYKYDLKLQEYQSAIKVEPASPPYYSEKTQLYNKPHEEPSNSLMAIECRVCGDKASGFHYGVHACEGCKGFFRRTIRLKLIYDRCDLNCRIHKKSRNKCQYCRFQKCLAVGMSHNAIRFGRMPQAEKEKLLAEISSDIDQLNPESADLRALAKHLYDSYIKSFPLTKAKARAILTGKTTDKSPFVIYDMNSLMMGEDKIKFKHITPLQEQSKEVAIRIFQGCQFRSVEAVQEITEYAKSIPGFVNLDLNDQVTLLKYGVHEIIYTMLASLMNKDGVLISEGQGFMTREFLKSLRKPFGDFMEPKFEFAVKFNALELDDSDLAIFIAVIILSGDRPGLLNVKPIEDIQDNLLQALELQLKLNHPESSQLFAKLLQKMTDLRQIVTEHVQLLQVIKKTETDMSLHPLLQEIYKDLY
Chain of Peroxisome proliferator-activated receptor gamma/Nuclear receptor coactivator 2 (Q15596 whole entry, further chain): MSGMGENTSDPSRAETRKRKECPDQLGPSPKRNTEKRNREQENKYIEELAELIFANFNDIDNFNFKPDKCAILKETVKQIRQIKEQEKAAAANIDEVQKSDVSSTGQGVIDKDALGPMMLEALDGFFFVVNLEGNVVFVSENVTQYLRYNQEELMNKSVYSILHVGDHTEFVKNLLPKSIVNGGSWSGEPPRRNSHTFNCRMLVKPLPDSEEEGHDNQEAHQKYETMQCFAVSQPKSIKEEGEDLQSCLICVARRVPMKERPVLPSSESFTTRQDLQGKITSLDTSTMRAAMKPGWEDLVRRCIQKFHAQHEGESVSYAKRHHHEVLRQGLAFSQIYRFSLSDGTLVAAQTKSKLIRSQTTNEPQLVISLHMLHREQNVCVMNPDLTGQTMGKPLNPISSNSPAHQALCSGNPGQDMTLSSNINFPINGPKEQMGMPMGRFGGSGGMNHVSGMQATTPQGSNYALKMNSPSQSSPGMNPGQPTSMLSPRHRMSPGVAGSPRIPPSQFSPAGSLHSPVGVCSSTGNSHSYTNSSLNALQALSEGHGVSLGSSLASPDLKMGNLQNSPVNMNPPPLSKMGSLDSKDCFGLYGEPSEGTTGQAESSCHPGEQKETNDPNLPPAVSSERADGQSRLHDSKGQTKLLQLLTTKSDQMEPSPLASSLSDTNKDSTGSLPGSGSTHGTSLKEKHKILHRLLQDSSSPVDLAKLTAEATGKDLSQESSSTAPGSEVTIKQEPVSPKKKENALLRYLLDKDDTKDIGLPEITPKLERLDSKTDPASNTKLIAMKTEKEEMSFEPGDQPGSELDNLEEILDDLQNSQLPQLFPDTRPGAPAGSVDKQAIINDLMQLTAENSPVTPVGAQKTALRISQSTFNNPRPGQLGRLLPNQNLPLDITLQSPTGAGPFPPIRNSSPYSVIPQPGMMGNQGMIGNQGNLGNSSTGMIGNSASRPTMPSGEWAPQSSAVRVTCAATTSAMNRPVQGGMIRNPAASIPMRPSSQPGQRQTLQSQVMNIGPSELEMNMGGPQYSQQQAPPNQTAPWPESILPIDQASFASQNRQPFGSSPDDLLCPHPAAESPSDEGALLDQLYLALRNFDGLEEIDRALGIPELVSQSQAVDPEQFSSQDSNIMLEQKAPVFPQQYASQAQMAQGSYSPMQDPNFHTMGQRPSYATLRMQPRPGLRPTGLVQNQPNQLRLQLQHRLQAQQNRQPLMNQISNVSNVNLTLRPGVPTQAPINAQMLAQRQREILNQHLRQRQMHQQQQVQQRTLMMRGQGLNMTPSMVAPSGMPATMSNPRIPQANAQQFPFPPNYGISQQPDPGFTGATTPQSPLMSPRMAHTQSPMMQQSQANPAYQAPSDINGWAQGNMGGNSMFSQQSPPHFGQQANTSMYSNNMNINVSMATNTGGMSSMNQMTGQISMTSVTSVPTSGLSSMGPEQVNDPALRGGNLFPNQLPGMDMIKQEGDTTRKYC
Chain of Peroxisome proliferator-activated receptor gamma/Nuclear receptor coactivator 1 (P37231 whole entry): as the sequence (P37231 whole entry) above
Chain of Peroxisome proliferator-activated receptor gamma/Nuclear receptor coactivator 1 (Q15788 whole entry, further chain): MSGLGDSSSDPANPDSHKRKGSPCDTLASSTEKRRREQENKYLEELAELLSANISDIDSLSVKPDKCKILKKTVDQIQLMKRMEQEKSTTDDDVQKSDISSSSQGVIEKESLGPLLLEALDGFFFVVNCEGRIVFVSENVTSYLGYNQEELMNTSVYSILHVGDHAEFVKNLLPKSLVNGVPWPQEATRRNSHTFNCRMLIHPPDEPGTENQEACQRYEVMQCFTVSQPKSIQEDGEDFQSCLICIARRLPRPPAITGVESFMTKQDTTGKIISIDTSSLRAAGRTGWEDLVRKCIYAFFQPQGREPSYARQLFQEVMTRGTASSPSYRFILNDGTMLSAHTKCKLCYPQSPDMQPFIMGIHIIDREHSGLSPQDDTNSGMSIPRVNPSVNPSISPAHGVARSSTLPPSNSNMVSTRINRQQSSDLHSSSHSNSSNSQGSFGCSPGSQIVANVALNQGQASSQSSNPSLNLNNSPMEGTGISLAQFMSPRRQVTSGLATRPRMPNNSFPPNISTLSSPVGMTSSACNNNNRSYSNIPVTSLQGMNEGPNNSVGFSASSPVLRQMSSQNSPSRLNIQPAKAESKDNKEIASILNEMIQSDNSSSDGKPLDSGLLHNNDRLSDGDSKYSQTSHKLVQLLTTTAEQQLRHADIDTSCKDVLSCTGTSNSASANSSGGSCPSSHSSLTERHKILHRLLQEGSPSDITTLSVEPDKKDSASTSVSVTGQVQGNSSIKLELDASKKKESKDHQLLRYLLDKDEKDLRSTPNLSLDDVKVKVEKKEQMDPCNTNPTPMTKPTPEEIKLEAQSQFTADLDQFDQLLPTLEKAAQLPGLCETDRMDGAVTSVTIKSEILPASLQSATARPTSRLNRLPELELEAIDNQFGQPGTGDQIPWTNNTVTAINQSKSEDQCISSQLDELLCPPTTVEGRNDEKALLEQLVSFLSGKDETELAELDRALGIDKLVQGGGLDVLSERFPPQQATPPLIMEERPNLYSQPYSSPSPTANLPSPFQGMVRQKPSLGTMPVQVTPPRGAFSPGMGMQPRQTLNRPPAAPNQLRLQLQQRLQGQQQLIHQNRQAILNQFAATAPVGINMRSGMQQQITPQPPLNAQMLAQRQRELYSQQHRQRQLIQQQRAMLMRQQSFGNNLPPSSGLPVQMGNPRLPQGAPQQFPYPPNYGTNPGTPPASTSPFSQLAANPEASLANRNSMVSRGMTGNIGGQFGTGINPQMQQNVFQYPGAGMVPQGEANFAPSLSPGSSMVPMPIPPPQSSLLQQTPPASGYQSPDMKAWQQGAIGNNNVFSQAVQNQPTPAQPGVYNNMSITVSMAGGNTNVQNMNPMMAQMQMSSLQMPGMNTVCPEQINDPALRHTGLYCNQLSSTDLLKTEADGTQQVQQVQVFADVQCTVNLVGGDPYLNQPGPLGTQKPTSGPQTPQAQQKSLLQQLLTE

Compound: CCc1ccc(O)c(-c2cc(C(=O)Nc3cccnc3)[nH]n2)c1
AC50 [1]: > 350 µM (inactive)

Compound: CCCCCOc1ccc(OC(=O)c2ccncc2)cc1
AC50 [2]: 25.1 µM (inconclusive)
AC50 [3]: 21.2 µM (active)
AC50 [4]: 7.57 µM (active)
AC50 [5]: 3.98 µM (inconclusive)

Compound: CC[N+]1=C(C)C(C)(C)c2cc(C)ccc21
EC50 [6]: 1.49 µM (active)
AC50 [7]: 5.84 µM (active)
EC50 [8]: > 60 µM (not active)
AC50 [3]: 64.4 µM (active)
IC50 [9]: > 50 µM (not active)
AC50 [4]: 24 µM (active)
IC50 [10]: 0.892 µM (active)

Compound: C(=N\Nc1ccccn1)/c1ccc(N2CCOCC2)cc1
IC50 [11]: 134 µM (active)
AC50 [12]: 62 µM (active)

AC50 [13]: inconclusive
Compound: Cn1c(=O)c(-c2ccc(F)cc2)nc2cnc(N3CCOCC3)nc21

AC50 [14]: inconclusive
AC50 [13]: inconclusive
Compound: COC(=O)c1cc(C(=O)c2cccc(Cl)c2Cl)cn1C

AC50 [13]: inconclusive
Compound: Cn1cccc1C(=O)N1CCC2(CC1)CCN(c1ncccn1)CC2

Compound: Cc1ccc(C(=O)NCCc2ccc(F)cc2)s1
AC50 [1]: 43.2 µM (active)

EC50 [15]: > 79.4 µM (not active)
IC50 [16]: 5.57 µM (active)
IC50 [17]: 4.95 µM (active)
IC50 [18]: > 20 µM (inactive)
EC50 [19]: > 79.4 µM (inactive)
EC50 [20]: > 79.4 µM (not active)
Compound: CCn1c(=O)cc(SCC(=O)NCCCN2CCN(c3ccc(F)cc3)CC2)c2ccccc21

Compound: NC(=O)CC(NC(=O)Cc1cccc2ccccc12)c1ccc(NC2CCCCC2)c([N+](=O)[O-])c1 (configuration not stated)
AC50 [3]: 27.9 µM (active)
AC50 [4]: 5.79 µM (active)
